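Results reflect a 48-hour exposure of cells in 96-well plates to compound at five concentrations. GI50 is the concentration that inhibits growth by half.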 Calls of active or inactive are those of the source. No stated cut-off is given here; in the data, active = GI50 up to about 1.1 µM and inactive = higher.
Assays:
Assay in all cases: DTP human tumour cell line panel, 48 h
[1] = tested on: HCT-116
[2] = tested on: 786-0
[3] = tested on: SF-539
[4] = tested on: SR
[5] = tested on: DMS-114
[6] = tested on: OVCAR-4
[7] = tested on: COLO 205
[8] = tested on: RXF 631
[9] = tested on: HT-29
[10] = tested on: SW-620
[11] = tested on: SK-OV-3
[12] = tested on: OVCAR-8
[13] = tested on: Malme-3M
[14] = tested on: ACHN
[15] = tested on: KM-20L2
[16] = tested on: SK-MEL-28
[17] = tested on: DLD-1
[18] = tested on: HOP-18
[19] = tested on: SNB-75
[20] = tested on: DMS-273
[21] = tested on: CCRF-CEM
[22] = tested on: KM12
[23] = tested on: CAKI-1
[24] = tested on: OVCAR-5
[25] = tested on: SF-268
[26] = tested on: SK-MEL-5
[27] = tested on: RXF 393
[28] = tested on: SNB-78
[29] = tested on: HL-60
[30] = tested on: NCI-H226
[31] = tested on: UACC-62
[32] = tested on: LXFL 529
[33] = tested on: SNB-19
[34] = tested on: HOP-62
[35] = tested on: K562
[36] = tested on: NCI-H522
[37] = tested on: LOX IMVI
[38] = tested on: SK-MEL-2
[39] = tested on: HOP-92
[40] = tested on: RPMI-8226
[41] = tested on: TK-10
[42] = tested on: NCI-H23
[43] = tested on: UACC-257
[44] = tested on: A498
[45] = tested on: M14
[46] = tested on: A549
[47] = tested on: EKVX
[48] = tested on: NCI-H460
[49] = tested on: HCT-15
[50] = tested on: OVCAR-3
[51] = tested on: SN12C
[52] = tested on: SF-295
[53] = tested on: U-251
[54] = tested on: IGROV-1
[55] = tested on: MOLT-4
[56] = tested on: M19-MEL
[57] = tested on: HCC 2998
[58] = tested on: UO-31
[59] = tested on: XF498

Structure (SMILES): N=C1NC2(O)C(=O)c3ccccc3C2(O)N1 (stereo not given)
- GI50 [1]: > 100 µM (inactive)
- GI50 [2]: > 100 µM (inactive)
- GI50 [3]: > 100 µM (inactive)
- GI50 [4]: > 100 µM (inactive)
- GI50 [5]: > 100 µM (inactive)
- GI50 [6]: > 100 µM (inactive)
- GI50 [7]: > 100 µM (inactive)
- GI50 [8]: > 100 µM (inactive)
- GI50 [9]: > 100 µM (inactive)
- GI50 [10]: > 100 µM (inactive)
- GI50 [11]: > 100 µM (inactive)
- GI50 [12]: > 100 µM (inactive)
- GI50 [13]: > 100 µM (inactive)
- GI50 [14]: > 100 µM (inactive)
- GI50 [15]: > 100 µM (inactive)
- GI50 [16]: > 100 µM (inactive)
- GI50 [17]: > 100 µM (inactive)
- GI50 [18]: > 100 µM (inactive)
- GI50 [19]: > 100 µM (inactive)
- GI50 [20]: > 100 µM (inactive)
- GI50 [21]: > 100 µM (inactive)
- GI50 [22]: > 100 µM (inactive)
- GI50 [23]: > 100 µM (inactive)
- GI50 [24]: > 100 µM (inactive)
- GI50 [25]: > 100 µM (inactive)
- GI50 [26]: > 100 µM (inactive)
- GI50 [27]: > 100 µM (inactive)
- GI50 [28]: > 100 µM (inactive)
- GI50 [29]: > 100 µM (inactive)
- GI50 [30]: > 100 µM (inactive)
- GI50 [31]: > 100 µM (inactive)
- GI50 [32]: > 100 µM (inactive)
- GI50 [33]: > 100 µM (inactive)
- GI50 [34]: > 100 µM (inactive)
- GI50 [35]: > 100 µM (inactive)
- GI50 [36]: > 100 µM (inactive)
- GI50 [37]: > 100 µM (inactive)
- GI50 [38]: > 100 µM (inactive)
- GI50 [39]: > 100 µM (inactive)
- GI50 [40]: > 100 µM (inactive)
- GI50 [41]: > 100 µM (inactive)
- GI50 [42]: > 100 µM (inactive)
- GI50 [43]: > 100 µM (inactive)
- GI50 [44]: > 100 µM (inactive)
- GI50 [45]: > 100 µM (inactive)
- GI50 [46]: > 100 µM (inactive)
- GI50 [47]: > 100 µM (inactive)
- GI50 [48]: > 100 µM (inactive)
- GI50 [49]: > 100 µM
- GI50 [50]: > 100 µM (inactive)
- GI50 [51]: > 100 µM (inactive)
- GI50 [52]: > 100 µM (inactive)
- GI50 [53]: > 100 µM (inactive)
- GI50 [54]: > 100 µM (inactive)
- GI50 [55]: > 100 µM (inactive)

Structure (SMILES): Cc1ccccc1C1OC(=O)c2ccccc21 (stereo not given)
- GI50 [1]: > 100 µM (inactive)
- GI50 [2]: > 100 µM (inactive)
- GI50 [3]: > 100 µM (inactive)
- GI50 [4]: > 100 µM (inactive)
- GI50 [5]: > 100 µM (inactive)
- GI50 [7]: > 100 µM (inactive)
- GI50 [8]: > 100 µM (inactive)
- GI50 [9]: > 100 µM (inactive)
- GI50 [10]: > 100 µM (inactive)
- GI50 [56]: > 100 µM (inactive)
- GI50 [11]: > 100 µM (inactive)
- GI50 [12]: 83.8 µM (inactive)
- GI50 [13]: > 100 µM (inactive)
- GI50 [14]: > 100 µM (inactive)
- GI50 [15]: > 100 µM (inactive)
- GI50 [16]: > 100 µM (inactive)
- GI50 [17]: > 100 µM (inactive)
- GI50 [57]: > 100 µM (inactive)
- GI50 [18]: > 100 µM (inactive)
- GI50 [19]: 77.3 µM (inactive)
- GI50 [20]: > 100 µM (inactive)
- GI50 [21]: > 100 µM (inactive)
- GI50 [22]: > 100 µM (inactive)
- GI50 [24]: > 100 µM (inactive)
- GI50 [25]: > 100 µM (inactive)
- GI50 [26]: > 100 µM (inactive)
- GI50 [27]: > 100 µM (inactive)
- GI50 [28]: > 100 µM (inactive)
- GI50 [29]: > 100 µM (inactive)
- GI50 [30]: > 100 µM (inactive)
- GI50 [31]: 56.1 µM (inactive)
- GI50 [32]: > 100 µM (inactive)
- GI50 [33]: > 100 µM (inactive)
- GI50 [34]: > 100 µM (inactive)
- GI50 [35]: > 100 µM (inactive)
- GI50 [36]: > 100 µM (inactive)
- GI50 [37]: > 100 µM (inactive)
- GI50 [38]: > 100 µM (inactive)
- GI50 [41]: > 100 µM (inactive)
- GI50 [58]: > 100 µM (inactive)
- GI50 [42]: > 100 µM (inactive)
- GI50 [44]: > 100 µM (inactive)
- GI50 [45]: > 100 µM (inactive)
- GI50 [46]: > 100 µM (inactive)
- GI50 [47]: > 100 µM (inactive)
- GI50 [48]: > 100 µM (inactive)
- GI50 [49]: > 100 µM
- GI50 [50]: > 100 µM (inactive)
- GI50 [51]: > 100 µM (inactive)
- GI50 [53]: > 100 µM (inactive)
- GI50 [54]: > 100 µM (inactive)
- GI50 [55]: > 100 µM (inactive)

Structure (SMILES): O=C(O)C1=CNC(C(=O)O)=NN1
- GI50 [1]: > 100 µM (inactive)
- GI50 [2]: > 100 µM (inactive)
- GI50 [3]: > 100 µM (inactive)
- GI50 [4]: > 100 µM (inactive)
- GI50 [5]: > 100 µM (inactive)
- GI50 [6]: > 100 µM (inactive)
- GI50 [7]: > 100 µM (inactive)
- GI50 [8]: > 100 µM (inactive)
- GI50 [9]: > 100 µM (inactive)
- GI50 [10]: > 100 µM (inactive)
- GI50 [56]: > 100 µM (inactive)
- GI50 [11]: > 100 µM (inactive)
- GI50 [12]: > 100 µM (inactive)
- GI50 [13]: > 100 µM (inactive)
- GI50 [14]: > 100 µM (inactive)
- GI50 [15]: > 100 µM (inactive)
- GI50 [16]: > 100 µM (inactive)
- GI50 [17]: > 100 µM (inactive)
- GI50 [18]: > 100 µM (inactive)
- GI50 [19]: > 100 µM (inactive)
- GI50 [21]: > 100 µM (inactive)
- GI50 [22]: > 100 µM (inactive)
- GI50 [23]: > 100 µM (inactive)
- GI50 [59]: > 100 µM (inactive)
- GI50 [25]: > 100 µM (inactive)
- GI50 [26]: > 100 µM (inactive)
- GI50 [27]: > 100 µM (inactive)
- GI50 [29]: > 100 µM (inactive)
- GI50 [30]: > 100 µM (inactive)
- GI50 [31]: > 100 µM (inactive)
- GI50 [32]: > 100 µM (inactive)
- GI50 [33]: > 100 µM (inactive)
- GI50 [34]: > 100 µM (inactive)
- GI50 [35]: > 100 µM (inactive)
- GI50 [36]: > 100 µM (inactive)
- GI50 [38]: > 100 µM (inactive)
- GI50 [39]: > 100 µM (inactive)
- GI50 [40]: > 100 µM (inactive)
- GI50 [41]: > 100 µM (inactive)
- GI50 [58]: > 100 µM (inactive)
- GI50 [42]: > 100 µM (inactive)
- GI50 [43]: > 100 µM (inactive)
- GI50 [45]: > 100 µM (inactive)
- GI50 [46]: > 100 µM (inactive)
- GI50 [47]: > 100 µM (inactive)
- GI50 [48]: > 100 µM (inactive)
- GI50 [49]: > 100 µM
- GI50 [50]: > 100 µM (inactive)
- GI50 [51]: > 100 µM (inactive)
- GI50 [52]: > 100 µM (inactive)
- GI50 [53]: > 100 µM (inactive)
- GI50 [54]: > 100 µM (inactive)
- GI50 [55]: > 100 µM (inactive)
